Test results taken from US20200390767A1, “Formulations of 4-(7-Hydroxy-2-isopropyl-4-oxo-4H-quinazolin-3-yl)-benzonitrile” (NOVARTIS AG, priority 2019, published 2020).
“And” between values parts separate entries of the source, which are not always exact repeats. Equal entries are not always repeated.

Key:
[1] = tested on: PRK surgery patients; test: PRK clinical study, ocular safety assessments and vital signs; type: in vivo, human
Excerpt: (§1) Adverse events and serious adverse events included an assessment of both systemic and ocular assessments. Systemic safety assessments included regular assessments of height and weight, vital signs, reporting medication errors including misuse/abuse, pregnancy reporting and early phase safety monitoring. The misuse/abuse, pregnancy reporting and early phase safety monitoring were not assessed for the study. Ocular safety assessments included the following: • Best-corrected visual acuity (BCVA) and uncorrected visual acuity (UCVA): Was measured at each visit using an ETDRS visual acuity chart at 4 meters (13 feet) or 1 meter (for patients that cannot read the 4 meter chart). The BCVA scoring was done based on the number of correctly read letters plus 30. If visual acuity was so poor that the patient could not read any of the largest letters at 1 meter, count fingers and hand movement vision and light perception was tested. • Intraocular Pressure (TOP): IOP measurements were conducted with applanation tonometry or Tonopen. • Dilated fundus exam: The dilated fundus examination included ophthalmoscopic assessments of the vitreous, retina/macula/choroid, and optic nerve. Evaluations for retinal tear/detachment, retinal hemorrhage, vitreous hemorrhage density, vitreous haze grading and abnormal findings were done and scored according to grading criteria. • Ocular hyperemia: Conjunctival redness of the bulbar conjunctiva in each eye at the slit lamp according to the McMonnies redness scale was graded. […] By adjusting the calibrated slit beam width and height, the maximum horizontal (wound width) and vertical dimensions (wound height) of the surgical epithelial wound was estimated. The evaluation was performed until wound closure and report of wound size as 0 horizontal and 0 vertical dimensions. • Slit-lamp biomicroscopy: Ocular signs (eyelids/conjunctiva, cornea, lens, and iris/anterior chamber) was assessed in both eyes by slit lamp biomicroscopy according to the grading criteria. • Blink rate: A blink was defined as a bilateral paroxysmal closure of the eyelids (duration <1 second) in the absence of a provoking external stimulus. Each blink assessment lasted for 2 min (or as close to 2 minutes as possible with minimum time 1 minute) and the obtained blink rate was averaged to calculate blink rate in blinks/min. • Tear production (Schirmer's test without anesthesia): The test was performed without anesthetic in both eyes simultaneously. Tear secretion was measured in millimeters of the length of strip wetted by tears. […] The strip was wetted with 1 drop of sterile saline and flicked to remove excess saline. The patient blinked several times to ensure dispersion of the dye throughout the tear film prior to grading on a scale of 0-3 (0=Normal, No staining; 1=Mild, Superficial stippling micropunctate staining; 2=Moderate, Macropunctate staining with some coalescent areas and 3=Severe, Numerous coalescent macropunctate areas and/or patches) for each of 5 zones (central plus 4 quadrants).

[2] = tested on: epithelial wound; test: PRK clinical study, size of epithelial defect by slit lamp exam; type: in vivo, human
Excerpt: as §1
Size of epithelial defect by slit lamp exam: In order to assess the rate of wound healing after administration of compound I, the size of the epithelial defect in both compound I and Vehicle treated populations was measured. The elliptical area of epithelial wound size was calculated as follows: Area (mm2)=width×height×pi, from the width and height of the epithelial defect measured at the slit lamp. The difference in epithelial wound area between compound I and Vehicle was not noticeably different at any time point except at Day 2 post-PRK surgery (all p-values for the difference in area was >0.35). On Day 2 (24 hours post-operative), the difference in average epithelial defect area between patients treated with compound I vs. Vehicle was 11.23 mm^2 (p value=0.034). This difference was not clinically significant in the immediate post-operative period. […]

[3] = across the scheduled time points

**Q.** For `CC(C)c1nc2cc(O)ccc2c(=O)n1-c1ccc(C#N)cc1` [Compound I, 4-(7-hydroxy-2-isopropyl-4-oxo-4H-quinazolin-3-yl)-benzonitrile], which “Ocular hyperemia, grade 4 (McMonnies scale), versus Vehicle” value ([1]; Day 2 postoperatively (24 hours after PRK surgery), all quadrants) is on record?
**A.** Its value is “less grade 4 hyperemia”.

**Q.** And the “Ocular hyperemia, grade 3 (McMonnies scale), versus Vehicle” value ([1]; Day 3 (48 hours post-operative))?
**A.** Its value is “less grade 3 hyperemia”.

**Q.** And the Dilated fundus exam [1, 3]?
**A.** Its Dilated fundus exam is “No abnormal findings”.

**Q.** And the “Slit-lamp biomicroscopy: aqueous flare, inflammatory cell grade, iris/anterior chamber, lens” value [1, 3]?
**A.** Its value is “No abnormalities were observed”.

**Q.** What about the “Corneal staining versus Vehicle” value ([1]; baseline, Day 8, EOS visit) of the same compound?
**A.** The value was “No clinical differences were observed”.

**Q.** And the vital sign parameters ([1]; during the study)?
**A.** Its vital sign parameters is “within the normal range”.

**Q.** What about the “BCVA and UCVA versus Vehicle” value ([1]; throughout the study) of the same compound?
**A.** The value was “did not result in any trend or obvious difference”.

**Q.** And the “Blink rate versus Vehicle” value ([1]; throughout the study)?
**A.** Its value is “no trend across the scheduled time points or obvious differences”.

**Q.** And the “Intraocular pressure versus Vehicle” value ([1]; throughout the study)?
**A.** Its value is “No trend across the scheduled time points or obvious differences”.

**Q.** And the “Epithelial Wound Size, Area, Difference compound I-Vehicle” value ([2]; Day 1)?
**A.** The value was 2.98 (27.33) mm^2.

**Q.** And the “Epithelial Wound Size, Area, raw mean (SD)” value (“Epithelial Wound Size … (SD)” for short) ([2]; Day 1)?
**A.** Its value is 220.15 (32.26) mm^2.

**Q.** And the “Epithelial Wound Size, Area, Difference compound I-Vehicle” value ([2]; Day 2)?
**A.** Its value is 11.23 mm^2 and 11.23 (32.30) mm^2.

**Q.** And the “Epithelial Wound Size … (SD)” value ([2]; Day 2)?
**A.** Its value is 83.02 (32.08) mm^2.

**Q.** What about the “Epithelial Wound Size, Area, Difference compound I-Vehicle” value ([2]; Day 3) of the same compound?
**A.** The value was 1.02 (8.78) mm^2.

**Q.** What about the “Epithelial Wound Size … (SD)” value ([2]; Day 3) of the same compound?
**A.** The value was 6.75 (12.66) mm^2.

**Q.** What about the “Epithelial Wound Size, Area, Difference compound I-Vehicle” value ([2]; Day 4) of the same compound?
**A.** The value was 0.31 (2.11) mm^2.

**Q.** And the “Epithelial Wound Size … (SD)” value ([2]; Day 4)?
**A.** Its value is 0.39 (2.04) mm^2.

**Q.** And the “Epithelial Wound Size, Area, Difference compound I-Vehicle” value ([2]; Day 8)?
**A.** Its value is 0.00 (0.00) mm^2.

**Q.** And the “Epithelial Wound Size … (SD)” value ([2]; Day 8)?
**A.** The value was 0.00 (0.00) mm^2.

**Q.** What about the “wound healing compared to Vehicle” value ([2]; human, in vivo) of the same compound?
**A.** Its value is “no delay in wound healing”.
